Experimental data reported in patent US20070128217A1 (priority 2003, published 2007).

Columns and labels:
[1] = system: rabbit serum obtained by immunizing a rabbit with the SARS-CoV strain Frankfurt 1; type: binding; set-up: Binding of a rabbit serum to linear peptides / Binding of a rabbit serum to looped peptides / Rabbit serum linear peptides / Rabbit serum looped peptides / Binding of a rabbit serum to linear peptides of protein N of SARS-CoV Urbani (Rabbit serum linear peptides) / Binding of a rabbit serum to looped/cyclic peptides of protein N of SARS-CoV Urbani (Rabbit serum looped peptides): unit not given here
[2] = system: antibodies in sera from SARS patients (sera 1a, 1b, 2, 6, 37, 62, London, SARS-yellow, SARS-green); type: binding, human; set-up: Binding of serum 6 to linear peptides of protein X1 of SARS-CoV Urbani / Binding of serum 37 to linear peptides of protein X1 of SARS-CoV Urbani / Binding of serum 6 to looped/cyclic peptide (PEPSCAN-ELISA) / Binding of serum 37 to looped/cyclic peptide (PEPSCAN-ELISA) / Binding of serum 37 to looped/cyclic peptides of protein X1 of SARS-CoV Urbani / Binding of serum 6 to linear peptides of protein X2 / Binding of serum 37 to linear peptides of protein X2 / Binding of serum 37 to looped/cyclic peptides of protein X2 of SARS-CoV Urbani / Binding of serum 6 to linear peptides of protein M of SARS-CoV Urbani / Binding of serum 37 to linear peptides of protein M of SARS-CoV Urbani / Binding of serum 6 to looped/cyclic peptides of protein M of SARS-CoV Urbani / Binding of serum 37 to looped/cyclic peptides of protein M of SARS-CoV Urbani / Binding of serum 6 to linear peptides of protein X3 of SARS-CoV Urbani / Binding of serum 37 to linear peptides of protein X3 of SARS-CoV Urbani / Binding of serum 37 to looped/cyclic peptides of protein X3 of SARS-CoV Urbani / Binding of serum 6 to linear peptides of protein X4 of SARS-CoV Urbani / Binding of serum 37 to linear peptides of protein X4 of SARS-CoV Urbani / Binding of serum 37 to looped/cyclic peptides of protein X4 of SARS-CoV Urbani / Binding of serum 6 to linear peptides of protein X5 of SARS-CoV Urbani / Binding of serum 37 to linear peptides of protein X5 of SARS-CoV Urbani / Binding of serum 37 to looped/cyclic peptides of protein X5 of SARS-CoV Urbani / Binding of serum 6 to linear peptides of protein N of SARS-CoV Urbani / Binding of serum 37 to linear peptides of protein N of SARS-CoV Urbani / Binding of serum 6 to linear peptide (PEPSCAN-ELISA) / Binding of serum 1a to looped/cyclic peptides of protein N of SARS-CoV Urbani / Binding of serum 1b to looped/cyclic peptides of protein N of SARS-CoV Urbani / Binding of serum 2 to looped/cyclic peptides of protein N of SARS-CoV Urbani / Binding of serum 6 to looped/cyclic peptides of protein N of SARS-CoV Urbani / Binding of serum 37 to looped/cyclic peptides of protein N of SARS-CoV Urbani / Binding of serum 62 to looped/cyclic peptides of protein N of SARS-CoV Urbani / Binding of serum London to looped/cyclic peptides of protein N of SARS-CoV Urbani / Binding of serum SARS-green to looped/cyclic peptides of protein N of SARS-CoV Urbani: unit not given here
[3] = system: control sera (pooled serum of ten healthy LUMC hospital workers; commercial negative donor pooled serum from the Dutch bloodbank); type: binding, human; set-up: Binding of Control serum LUMC to linear peptides / Binding of Control serum Blood-bank to linear peptides / Binding of Control serum LUMC to looped peptides / Binding of Control Serum Blood-Bank to Looped peptides / Binding of Control serum LUMC to linear peptides of the protein M of SARS-CoV Urbani / Binding of Control serum Blood-bank to linear peptides of the protein M of SARS-CoV Urbani / Binding of Control serum LUMC to looped peptides of the protein M of SARS-CoV Urbani / Binding of Control Serum Blood-Bank to Looped peptides of the protein M of SARS-CoV Urbani: unit not given here

| Sequence | Binding of a rabbit serum to linear peptides [1] | Binding of a rabbit serum to looped peptides [1] | Binding of serum 1a to linear peptides of protein X2 [2] | Binding of serum 1a to looped/cyclic peptides of protein X2 of SARS-CoV Urbani [2] | Binding of serum 1b to linear peptides of protein X2 [2] | Binding of serum 1b to looped/cyclic peptides of protein X2 of SARS-CoV Urbani [2] | Binding of serum 2 to linear peptides of protein X2 [2] | Binding of serum 2 to looped/cyclic peptides of protein X2 of SARS-CoV Urbani [2] | Binding of serum 6 to linear peptides of protein X2 [2] | Binding of serum 6 to looped/cyclic peptides of protein X2 of SARS-CoV Urbani [2] | Binding of serum 37 to linear peptides of protein X2 [2] | Binding of serum 37 to looped/cyclic peptides of protein X2 of SARS-CoV Urbani [2] | Binding of serum 62 to linear peptides of protein X2 [2] | Binding of serum 62 to looped/cyclic peptides of protein X2 of SARS-CoV Urbani [2] | Binding of serum London to linear peptides of protein X2 [2] | Binding of serum London to looped/cyclic peptides of protein X2 of SARS-CoV Urbani [2] | Binding of Control Serum Blood-Bank to Looped peptides [3] | Binding of Control serum Blood-bank to linear peptides [3] | Binding of Control serum LUMC to linear peptides [3] | Binding of Control serum LUMC to looped peptides [3] | other results |
| --- | --- | --- | --- | --- | --- | --- | --- | --- | --- | --- | --- | --- | --- | --- | --- | --- | --- | --- | --- | --- | --- |
| TTSLSLHKLLQTLVL | 0.1 | 0.4 | 0.5 | 0.5 | 0.5 | 0.4 | 0.3 | 0.4 | 0.5 | 0.5 | 0.5 | 0.5 | 0.5 | 0.6 | 0.5 | 1.3 | 0.6 | 0.6 | 0.4 | 0.6 | Binding of serum SARS-green to linear peptides of protein X2 [2]: 0.6; Binding of serum SARS-green to looped/cyclic peptides of protein X2 of SARS-CoV Urbani [2]: 0.3; Binding of serum SARS-yellow to linear peptides of protein X2 [2]: 0.3; Binding of serum SARS-yellow to looped/cyclic peptides of protein X2 of SARS-CoV Urbani [2]: 0.5 |
| TVSQIQLSLLKVTAF | 0.6 | 0.5 | 0.5 | 0.5 | 0.4 | 0.5 | 0.4 | 0.4 | 0.5 | 1.0 | 0.6 | 0.4 | 0.4 | 0.6 | 0.3 | 1.4 | 0.7 | 0.5 | 0.6 | 0.7 | Binding of serum SARS-green to linear peptides of protein X2 [2]: 0.1; Binding of serum SARS-green to looped/cyclic peptides of protein X2 of SARS-CoV Urbani [2]: 0.4; Binding of serum SARS-yellow to linear peptides of protein X2 [2]: 0.6; Binding of serum SARS-yellow to looped/cyclic peptides of protein X2 of SARS-CoV Urbani [2]: 0.7 |
| TVYHITVSQIQLSLL | 0.7 | 0.3 | 0.6 | 0.4 | 0.5 | 0.4 | 0.5 | 0.3 | 0.4 | 0.2 | 0.6 | 0.4 | 0.4 | 0.5 | 0.4 | 0.2 | 0.6 | 0.5 | 0.5 | 0.5 | Binding of serum SARS-green to linear peptides of protein X2 [2]: 0.1; Binding of serum SARS-green to looped/cyclic peptides of protein X2 of SARS-CoV Urbani [2]: 0.2; Binding of serum SARS-yellow to linear peptides of protein X2 [2]: 0.7; Binding of serum SARS-yellow to looped/cyclic peptides of protein X2 of SARS-CoV Urbani [2]: 0.3 |
| TYSTAWLCALGKVLP |  |  |  |  |  |  |  |  |  |  |  |  |  |  |  |  | 0.5 | 0.9 | 0.5 | 0.6 | Rabbit serum linear peptides [1]: 0.6; Rabbit serum looped peptides [1]: 0.7; Binding of serum 1a to linear peptides of protein X5 of SARS-CoV Urbani [2]: 0.8; Binding of serum 1a to looped/cyclic peptides of protein X5 of SARS-CoV Urbani [2]: 0.5; Binding of serum 1b to linear peptides of protein X5 of SARS-CoV Urbani [2]: 0.6; Binding of serum 1b to looped/cyclic peptides of protein X5 of SARS-CoV Urbani [2]: 0.3; Binding of serum 2 to linear peptides of protein X5 of SARS-CoV Urbani [2]: 0.9; Binding of serum 2 to looped/cyclic peptides of protein X5 of SARS-CoV Urbani [2]: 1.1; Binding of serum 6 to linear peptides of protein X5 of SARS-CoV Urbani [2]: 0.6; Binding of serum 6 to looped/cyclic peptides of protein X5 of SARS-CoV Urbani [2]: 0.4; Binding of serum 37 to linear peptides of protein X5 of SARS-CoV Urbani [2]: 0.7; Binding of serum 37 to looped/cyclic peptides of protein X5 of SARS-CoV Urbani [2]: 0.6; Binding of serum 62 to linear peptides of protein X5 of SARS-CoV Urbani [2]: 0.8; Binding of serum 62 to looped/cyclic peptides of protein X5 of SARS-CoV Urbani [2]: 0.8; Binding of serum London to linear peptides of protein X5 of SARS-CoV Urbani [2]: 0.7; Binding of serum London to looped/cyclic peptides of protein X5 of SARS-CoV Urbani [2]: 0.2; Binding of serum SARS-green to linear peptides of protein X5 of SARS-CoV Urbani [2]: 0.7; Binding of serum SARS-green to looped/cyclic peptides of protein X5 of SARS-CoV Urbani [2]: 0.3; Binding of serum SARS-yellow to linear peptides of protein X5 of SARS-CoV Urbani [2]: 0.4; Binding of serum SARS-yellow to looped/cyclic peptides of protein X5 of SARS-CoV Urbani [2]: 0.5 |
| VAAGMEAQFLYLYAL | 0.1 | 0.5 |  |  |  |  |  |  |  |  |  |  |  |  |  |  | 0.5 | 0.5 | 0.9 | 0.8 | Binding of serum 1a to linear peptides of protein X1 of SARS-CoV Urbani [2]: 0.7; Binding of serum 1a to looped/cyclic peptide (PEPSCAN-ELISA) [2]: 0.5; Binding of serum 1b to linear peptides of protein X1 of SARS-CoV Urbani [2]: 0.6; Binding of serum 1b to looped/cyclic peptide (PEPSCAN-ELISA) [2]: 0.4; Binding of serum 2 to linear peptides of protein X1 of SARS-CoV Urbani [2]: 0.5; Binding of serum 2 to looped/cyclic peptide (PEPSCAN-ELISA) [2]: 0.4; Binding of serum 6 to linear peptides of protein X1 of SARS-CoV Urbani [2]: 0.4; Binding of serum 6 to looped/cyclic peptide (PEPSCAN-ELISA) [2]: 0.3; Binding of serum 37 to linear peptides of protein X1 of SARS-CoV Urbani [2]: 0.5; Binding of serum 37 to looped/cyclic peptide (PEPSCAN-ELISA) [2]: 0.5; Binding of serum 62 to linear peptides of protein X1 of SARS-CoV Urbani [2]: 0.4; Binding of serum 62 to looped/cyclic peptide (PEPSCAN-ELISA) [2]: 0.5; Binding of serum London to linear peptides of protein X1 of SARS-CoV Urbani [2]: 0.2; Binding of serum London to looped/cyclic peptide (PEPSCAN-ELISA) [2]: 0.2; Binding of serum SARS-green to linear peptides of protein X1 of SARS-CoV Urbani [2]: 0.2; Binding of serum SARS-green to looped/cyclic peptide (PEPSCAN-ELISA) [2]: 0.3; Binding of serum SARS-yellow to linear peptides of protein X1 of SARS-CoV Urbani [2]: 0.3; Binding of serum SARS-yellow to looped/cyclic peptide (PEPSCAN-ELISA) [2]: 0.5 |
